Data as given in patent publication US8846570B2, “Herbicidal compositions comprising 4-amino-3-chloro-5-fluoro-6-(4-chloro-2-fluoro-3-methoxyphenyl)pyridine-2-carboxylic acid or a derivative thereof and microtubule inhibiting herbicides” (Dow AgroSciences LLC, priority 2012, dated 2014).
Read-outs that look alike come from different tables or passages of the source.

Key:
Assay in all cases: Postemergence foliar-applied, direct seeded rice, greenhouse: visual weed control
Assay type in all cases: in vivo
[1] = tested on: Ipomoea hederacea Jacq. (IPOHE); settings: post-emergence, read-out: Visual Weed Control (%) Obs
Experimental: (§1) Seeds or nutlets of the desired test plant species were planted in a soil matrix prepared by mixing a loam or sandy loam soil (e.g., 28.6 percent silt, 18.8 percent clay, and 52.6 percent sand, with a pH of about 5.8 and an organic matter content of about 1.8 percent) and calcareous grit in an 80 to 20 ratio. The soil matrix was contained in plastic pots with a volume of 1 quart and a surface area of 83.6 cm^2. […] The plants were grown for 8-22 days in a greenhouse with an approximate 14 h photoperiod which was maintained at about 29° C. during the day and 26° C. during the night. Nutrients (Peters Excel® 15-5-15 5-Ca 2-Mg and iron chelate) were applied in the irrigation solution as needed and water was added on a regular basis. Supplemental lighting was provided with overhead metal halide 1000-Watt lamps as necessary. The plants were employed for testing when they reached the first through fourth true leaf stage.
(§2) Forms of compound A were applied on an acid equivalent basis.
(§3) For treatments comprised of formulated compounds, measured amounts of compounds were placed individually in 25 mL glass vials and diluted in a volume of 1.25% (v/v) Agri-Dex® crop oil concentrated to obtain 12× stock solutions. […] Application solutions were prepared by adding an appropriate amount of each stock solution (e.g., 1 mL) and diluted to the appropriate final concentrations with the addition of 10 mL of an aqueous mixture of 1.25% (v/v) crop oil concentrate so that the final spray solutions contained 1.25+/−0.05% (v/v) crop oil concentrate.
(§4) As required, additional water and/or 97:3 v/v acetone/DMSO was added to individual application solutions so that the final acetone and DMSO concentrations of the application solutions being compared were 8.1% and 0.25%, respectively.
(§5) All stock solutions and applications solutions were visually inspected for compound compatibility prior to application. Spray solutions were applied to the plant material with an overhead Mandel track sprayer equipped with a 8002E nozzles calibrated to deliver 187 L/ha over an application area of 0.503 m^2 at a spray height of 18 to 20 inches (46 to 50 cm) above average plant canopy height. Control plants were sprayed in the same manner with the solvent blank.
(§6) The treated plants and control plants were placed in a greenhouse as described above and watered by sub-irrigation to prevent wash-off of the test compounds. After approximately 3 weeks, the condition of the test plants as compared with that of the untreated plants was determined visually and scored on a scale of 0 to 100 percent where 0 corresponds to no injury or growth inhibition and 100 corresponds to complete kill.
(§7) Colby's equation was used to determine the herbicidal effects expected from the mixtures (Colby, S. R. 1967. Calculation of the synergistic and antagonistic response of herbicide combinations. Weeds 15:20-22.).
(§8) The following equation was used to calculate the expected activity of mixtures containing two active ingredients, A and B: Expected=A+B−(A×B/100)

[2] = tested on: Echinochloa crusgalli (L.) Beauv. (ECHCG)
Experimental: as §1, §2, §3, §4, §5, §6, §7, §8

[3] = tested on: Brachiaria platyphylla (Griseb.) Nash (BRAPP); settings: 21 DAA
From the text: (§9) Seeds or nutlets of the desired test plant species were planted in a soil matrix prepared by mixing a loam or sandy loam soil (e.g., 28.6 percent silt, 18.8 percent clay, and 52.6 percent sand, with a pH of about 5.8 and an organic matter content of about 1.8 percent) and calcareous grit in an 80 to 20 ratio. The soil matrix was contained in plastic pots with a volume of 1 quart and a surface area of 83.6 cm^2. When required to ensure good germination and healthy plants, a fungicide treatment and/or other chemical or physical treatment was applied. The plants were grown for 8-22 days in a greenhouse with an approximate 14 h photoperiod which was maintained at about 29° C. during the day and 26° C. during the night. Nutrients (Peters Excel® 15-5-15 5-Ca 2-Mg and iron chelate) were applied in the irrigation solution as needed and water was added on a regular basis. Supplemental lighting was provided with overhead metal halide 1000-Watt lamps as necessary. The plants were employed for testing when they reached the first through fourth true leaf stage.
(§10) Treatments consisted of the acid or esters of 4-amino-3-chloro-5-fluoro-6-(4-chloro-2-fluoro-3-methoxy-phenyl)pyridine-2-carboxylic acid (Compound A), each formulated as an SC (suspension concentrate), and various herbicidal components alone and in combination. Forms of compound A were applied on an acid equivalent basis.
(§11) Treatment requirements were calculated based upon the rates being tested, the concentration of active ingredient or acid equivalent in the formulation, and a 12 mL application volume at a rate of 187 L/ha.
as §3, §4, §5, §6, §7, §8

[4] = tested on: Echinochloa colona (L.) Link (ECHCO)
From the text: as §9, §10, §11, §3, §4, §5, §6, §7, §8

[5] = tested on: Digitaria sanguinalis (L.) Scop. (DIGSA); settings: 19 DAA
From the text: as §9, §10, §11, §3, §4, §5, §6, §7, §8

SMILES: COc1c(Cl)ccc(-c2nc(C(=O)O)c(Cl)c(N)c2F)c1F [Compound A Acid, 4-amino-3-chloro-6-(4-chloro-2-fluoro-3-methoxyphenyl)-5-fluoropyridine-2-carboxylic acid]
- pest or weed control at 4.38 g/ha ([1]; 456 h, 19 DAA, 4.38 g ae/ha): 0%
- pest or weed control at 8.75 g/ha ([1]; 456 h, 19 DAA, 8.75 g ae/ha): 10%
- pest or weed control at 35 g/ha ([1]; 504 h, 21 DAA, 35 g ae/ha): 45%
- pest or weed control at 8 g/ha ([1]; 528 h, 22 DAA, 8 g ae/ha): 25%
- pest or weed control at 16 g/ha ([1]; 528 h, 22 DAA, 16 g ae/ha): 35%
- pest or weed control at 32 g/ha ([1]; 528 h, 22 DAA, 32 g ae/ha): 40%
- Visual Weed Control (%) Obs ([2]; 19 DAA, 4.38 g ae/ha): 60%
- Visual Weed Control (%) Obs ([3]; 8.75 g ae/ha): 60%
- Visual Weed Control (%) Obs ([4]; 21 DAA, 4.38 g ae/ha): 60%
- Visual Weed Control (%) Obs ([4]; 21 DAA, 8.75 g ae/ha): 90%
- Visual Weed Control (%) Obs ([5]; 4.38 g ae/ha): 30%

SMILES: COc1c(Cl)ccc(-c2nc(C(=O)OCc3ccccc3)c(Cl)c(N)c2F)c1F [Compound A Benzyl Ester, benzyl ester of 4-amino-3-chloro-5-fluoro-6-(4-chloro-2-fluoro-3-methoxy-phenyl)pyridine-2-carboxylic acid]
- pest or weed control at 4.38 g/ha ([1]; 456 h): 0%
- pest or weed control at 8.75 g/ha ([1]; 456 h): 0%
- pest or weed control at 8 g/ha ([1]; 480 h): 20%
- pest or weed control at 8.75 g/ha ([1]; 480 h): 10%
- pest or weed control at 16 g/ha ([1]; 480 h): 40%
- pest or weed control at 17.5 g/ha ([1]; 480 h): 25%
- pest or weed control at 4.38 g/ha ([1]; 504 h): 10%
- pest or weed control at 8.75 g/ha ([1]; 504 h): 10%
- pest or weed control at 17.5 g/ha ([1]; 504 h): 25%
- pest or weed control at 8 g/ha ([1]; 528 h): 10%
- pest or weed control at 16 g/ha ([1]; 528 h): 10%
- pest or weed control at 32 g/ha ([1]; 528 h): 35%
- Visual Weed Control (%) Obs ([2]; 19 DAA, 4.38 g ae/ha): 55%
- Visual Weed Control (%) Obs ([2]; 19 DAA, 8.75 g ae/ha): 85%
- Visual Weed Control (%) Obs ([2]; 20 DAA, 4.38 g ae/ha): 40%
- Visual Weed Control (%) Obs ([2]; 20 DAA, 8.75 g ae/ha): 70%
- Visual Weed Control (%) Obs ([3]; 4.38 g ae/ha): 70%
- Visual Weed Control (%) Obs ([4]; 19 DAA, 4.38 g ae/ha): 65%
- Visual Weed Control (%) Obs ([4]; 19 DAA, 8.75 g ae/ha): 90%
- Visual Weed Control (%) Obs ([5]; 4.38 g ae/ha): 35%
- Visual Weed Control (%) Obs ([5]; 8.75 g ae/ha): 50%

SMILES: CSC(=O)c1c(C(F)F)nc(C(F)(F)F)c(C(=O)SC)c1CC(C)C [Dithiopyr, S,S′-dimethyl-2-(difluoromethyl)-4-(2-methylpropyl)-6-(trifluoromethyl)-3,5-pyridinedicarbothioate]
- pest or weed control at 35 g/ha ([1]; 504 h, 21 DAA, 35 g ai/ha): 10%
- Visual Weed Control (%) Obs ([3]; 35 g ai/ha): 0%
- Visual Weed Control (%) Obs ([3]; 70 g ai/ha): 0%
- Visual Weed Control (%) Obs ([3]; 140 g ai/ha): 0%
- Visual Weed Control (%) Obs ([4]; 21 DAA, 35 g ai/ha): 0%
- Visual Weed Control (%) Obs ([4]; 21 DAA, 70 g ai/ha): 0%
- Visual Weed Control (%) Obs ([4]; 21 DAA, 140 g ai/ha): 0%

SMILES: CCC(CC)Nc1c([N+](=O)[O-])cc(C)c(C)c1[N+](=O)[O-] [Pendimethalin, N-(1-ethylpropyl)-3,4-dimethyl-2,6-dinitrobenzenamine, reference compound]
- pest or weed control at 140 g/ha ([1]; 456 h, 19 DAA, 140 g ai/ha): 0%
- pest or weed control at 280 g/ha ([1]; 456 h, 19 DAA, 280 g ai/ha): 0%
- pest or weed control at 560 g/ha ([1]; 456 h, 19 DAA, 560 g ai/ha): 0%
- pest or weed control at 1120 g/ha ([1]; 504 h, 21 DAA, 1120 g ai/ha): 13%
- Visual Weed Control (%) Obs ([2]; 19 DAA, 140 g ai/ha): 0%
- Visual Weed Control (%) Obs ([2]; 19 DAA, 280 g ai/ha): 0%
- Visual Weed Control (%) Obs ([2]; 19 DAA, 560 g ai/ha): 10%
- Visual Weed Control (%) Obs ([2]; 21 DAA, 1120 g ai/ha): 18%
- Visual Weed Control (%) Obs ([4]; 19 DAA, 140 g ai/ha): 0%
- Visual Weed Control (%) Obs ([4]; 19 DAA, 280 g ai/ha): 0%
- Visual Weed Control (%) Obs ([4]; 19 DAA, 560 g ai/ha): 0%
- Visual Weed Control (%) Obs ([5]; 140 g ai/ha): 0%
- Visual Weed Control (%) Obs ([5]; 280 g ai/ha): 0%
